Test results: ChEMBL document CHEMBL5523679, “Discovery of 1,2,3-triazole incorporated indole-piperazines as potent antitubercular agents: Design, synthesis, in vitro biological evaluation, molecular docking and ADME studies” (Bioorg Med Chem, 2024)

Experiments:
Type in all cases: functional
Escherichia coli [1] = experiment: Antibacterial activity against Escherichia coli assessed as inhibition zone at 75 ug/ml by diffusion method; settings: read-out: IZ
[2] = system: Mycobacterium tuberculosis; experiment: Antimycobacterial activity against Mycobacterium tuberculosis H37Rv assessed as bacterial growth inhibition by microplate Alamar blue assay
Pseudomonas aeruginosa [3] = experiment: Antibacterial activity against Pseudomonas aeruginosa assessed as inhibition zone at 75 ug/ml by diffusion method; settings: read-out: IZ
Staphylococcus aureus [4] = experiment: Antibacterial activity against Staphylococcus aureus assessed as inhibition zone at 25 ug/ml by diffusion method; settings: read-out: IZ
Staphylococcus aureus [5] = experiment: Antibacterial activity against Staphylococcus aureus assessed as inhibition zone at 75 ug/ml by diffusion method; settings: read-out: IZ
Escherichia coli [6] = experiment: Antibacterial activity against Escherichia coli assessed as inhibition zone at 50 ug/ml by diffusion method; settings: read-out: IZ
Staphylococcus aureus [7] = experiment: Antibacterial activity against Staphylococcus aureus assessed as inhibition zone at 50 ug/ml by diffusion method; settings: read-out: IZ
Pseudomonas aeruginosa [8] = experiment: Antibacterial activity against Pseudomonas aeruginosa assessed as inhibition zone at 50 ug/ml by diffusion method; settings: read-out: IZ

Row | SMILES | zone of inhibition at 75 µg/mL (Escherichia coli [1]) [mm] | MIC [2] [µM] | zone of inhibition at 75 µg/mL (Pseudomonas aeruginosa [3]) [mm] | zone of inhibition at 25 µg/mL (Staphylococcus aureus [4]) [mm] | zone of inhibition at 75 µg/mL (Staphylococcus aureus [5]) [mm] | zone of inhibition at 50 µg/mL (Escherichia coli [6]) [mm] | zone of inhibition at 50 µg/mL (Staphylococcus aureus [7]) [mm] | zone of inhibition at 50 µg/mL (Pseudomonas aeruginosa [8]) [mm]
1 | Cc1ccc(C(=O)N2CCN(C(=O)Cc3c[nH]c4ccccc34)CC2)cc1 | 18 | > 120 | 10 | 12 | 15 | 12 | 13 | –
2 | O=C(CCc1c[nH]c2ccccc12)N1CCN(C(=O)c2ccccc2)CC1 | 15 | > 120 | 12 | – | 15 | 13 | 13 | 10
3 | O=C(Cc1c[nH]c2ccccc12)N1CCN(C(=O)c2ccc(F)cc2)CC1 | 18 | 68.4 | 10 | – | 20 | 15 | 13 | –
4 | Cc1ccc(S(=O)(=O)N2CCN(C(=O)CCc3cn(Cc4ccc(F)cc4)c4ccccc34)CC2)cc1 | 18 | 48.1 | 10 | 15 | 23 | 15 | 18 | –
5 | O=C(CCc1cn(Cc2ccc(F)cc2)c2ccccc12)N1CCN(C(=O)c2ccccc2)CC1 | 15 | 53.2 | 13 | 15 | 23 | 13 | 18 | 10
6 | O=C(CCc1c[nH]c2ccccc12)N1CCN(S(=O)(=O)c2ccc(Cl)cc2)CC1 | 10 | 57.8 | 10 | – | 13 | 8 | 10 | –
7 | O=C(Cc1cn(Cc2ccc(F)cc2)c2ccccc12)N1CCN(S(=O)(=O)c2ccc(Cl)cc2)CC1 | 18 | 23.8 | 13 | 15 | 22 | 15 | 18 | –
8 | Cc1ccc(S(=O)(=O)N2CCN(C(=O)Cc3cn(Cc4ccc(F)cc4)c4ccccc34)CC2)cc1 | 18 | 49.4 | 13 | 13 | 22 | 15 | 18 | –
9 | O=C(Cc1cn(Cc2ccc(F)cc2)c2ccccc12)N1CCN(C(=O)c2ccc(Cl)cc2)CC1 | 15 | 25.5 | 13 | 13 | 23 | 13 | 18 | 10
10 | O=C(Cc1cn(Cc2ccc(F)cc2)c2ccccc12)N1CCN(C(=O)c2ccccc2)CC1 | 12 | > 120 | 12 | 13 | 23 | 10 | 17 | 10
11 | COc1ccc(S(=O)(=O)N2CCN(C(=O)CCc3cn(Cc4cn(Cc5ccc(F)cc5)nn4)c4ccccc34)CC2)cc1 | 18 | 20.3 | 13 | 10 | 18 | 15 | 15 | 10
12 | O=C(Cc1cn(Cc2ccc(F)cc2)c2ccccc12)N1CCN(S(=O)(=O)c2ccc(F)cc2)CC1 | 18 | 24.5 | 18 | 15 | 20 | 13 | 18 | –
13 | NNC(=O)c1ccncc1 [ISONIAZID] | – | 11.7 | – | – | – | – | – | –
14 | NC(=O)c1cnccn1 [PYRAZINAMIDE] | – | 25.3 | – | – | – | – | – | –
